Data on 23 molecules can be found in paper PMC5150661 (Journal of Medicinal Chemistry, 2016).

The structures appear in SMILES notation. Where two headings read alike, the source gives them in different places. Marks after values point to notes of the source that are not given here.

Data set [1] is classed as in vitro ADME. The note with it: liver microsomes.
Data set [2] deals with T1, wild-type androgen receptor (AR) in LAPC4 cell line (Homo sapiens, UniProt P10275).
T1 sequence (P10275 1-920): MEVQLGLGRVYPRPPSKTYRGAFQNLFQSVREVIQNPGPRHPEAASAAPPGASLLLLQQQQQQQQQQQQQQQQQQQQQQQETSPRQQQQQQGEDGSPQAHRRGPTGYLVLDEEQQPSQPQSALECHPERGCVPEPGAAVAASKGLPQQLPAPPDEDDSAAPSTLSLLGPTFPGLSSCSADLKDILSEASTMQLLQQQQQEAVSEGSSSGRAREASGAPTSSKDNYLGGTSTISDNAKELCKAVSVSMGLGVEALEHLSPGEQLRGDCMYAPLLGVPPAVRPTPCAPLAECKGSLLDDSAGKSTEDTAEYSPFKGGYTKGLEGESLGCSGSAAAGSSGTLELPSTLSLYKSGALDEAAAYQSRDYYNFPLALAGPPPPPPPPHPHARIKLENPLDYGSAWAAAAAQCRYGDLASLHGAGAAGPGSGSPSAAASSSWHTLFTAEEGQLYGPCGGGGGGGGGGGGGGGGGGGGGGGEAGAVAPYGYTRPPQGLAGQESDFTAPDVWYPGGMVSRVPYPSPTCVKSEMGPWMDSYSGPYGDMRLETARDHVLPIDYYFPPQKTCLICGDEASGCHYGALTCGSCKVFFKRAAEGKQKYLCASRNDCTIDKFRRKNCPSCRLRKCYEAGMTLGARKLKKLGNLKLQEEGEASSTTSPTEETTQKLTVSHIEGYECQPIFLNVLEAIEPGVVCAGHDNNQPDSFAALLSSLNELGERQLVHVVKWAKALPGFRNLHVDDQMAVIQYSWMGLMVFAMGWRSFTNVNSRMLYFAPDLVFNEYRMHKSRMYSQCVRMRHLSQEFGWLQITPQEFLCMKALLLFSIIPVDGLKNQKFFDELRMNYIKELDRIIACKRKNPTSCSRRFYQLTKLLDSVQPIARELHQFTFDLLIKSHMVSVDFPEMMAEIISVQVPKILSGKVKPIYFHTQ
The data set is classed as cell-based.

The subject of data set [3] is S. mansoni. Kind of data set: S. mansoni in vivo study, worm burden reduction in infected NMRI mice. On the set-up: species or system Schistosoma mansoni in NMRI mice. The following applies: 100 mg/kg.
Data set [4] is described as follows: Mouse exposure study after oral administration. The following applies: after oral administration of 100 mg/kg of 1. The format is in vivo, male Swiss outbred mice.
Data set [5] has as its system S. mansoni. The note with it: cited from earlier work.
The subject of data set [6] is S. mansoni. The following applies: 1 × 100 mg/kg po; ref Keiser et al. 21; cited from earlier work.
[7] abbreviates: 0.01 M HCl (approximately pH 2.0), 1% DMSO, nephelometry.
Where [8] appears, read: pH 6.5 phosphate buffer, 1% DMSO, nephelometry.

With `CN1C(=O)N(c2ccc(F)c(C(F)(F)F)c2)C(=O)C1(C)C` [Compd 2, 3-[4-Fluoro-3-(trifluoromethyl)phenyl]-1,5,5-trimethylimidazolidine-2,4-dione], the Sol2.0 under setting [7] was 50–100/50–100 μg/mL. In addition, the Sol6.5 under setting [8] is 50–100/50–100 μg/mL. Moreover, in data set [1], the metabolic reactions observed entry is “N-dealkylation metabolic reactions to form 1” and the “metabolic stability (in words)” value is reported as “intermediate”.

`CCN1C(=O)N(c2ccc(F)c(C(F)(F)F)c2)C(=O)C1(C)C` [Compd 3, 1-Ethyl-3-[4-fluoro-3-(trifluoromethyl)phenyl]-5,5-dimethylimidazolidine-2,4-dione] returned a Sol2.0 under setting [7] of 50 to 100 µg/mL. This molecule also registered a Sol6.5 under setting [8] of 25 to 50 µg/mL. Moreover, in data set [1], the metabolic reactions observed entry is reported as “N-dealkylation metabolic reactions to form 1” and the “metabolic stability (in words)” value is reported as “intermediate”.

With `CC1(C)C(=O)N(c2ccc(F)c(C(F)(F)F)c2)C(=O)N1CC(N)=O` [Compd 4, 2-[3-[4-Fluoro-3-(trifluoromethyl)phenyl]-5,5-dimethyl-2,4-dioxoimidazolidin-1-yl]acetamide], the Sol2.0 under setting [7] is on record as 50–100/50–100 μg/mL. In addition, the Sol6.5 under setting [8] is on record as 50–100/50–100 μg/mL. For the same molecule, the “LAPC4 IC50” value in data set [2] (DHT-induced luciferase reporter, 24 h) is recorded as “agonist”. Also, the “AR functional activity (in words)” value in data set [2] (LAPC4 reporter) is “weak AR agonist”.

Take `CC1(C)C(=O)N(c2ccc(F)c(C(F)(F)F)c2)C(=O)N1CC#N` [Compd 5, 2-[3-[4-Fluoro-3-(trifluoromethyl)phenyl]-5,5-dimethyl-2,4-dioxoimidazolidin-1-yl]acetonitrile]: under setting [7], the Sol2.0 is 25–50/25–50 μg/mL. The Sol6.5 under setting [8] is recorded as 25–50/25–50 μg/mL.

In turn, `CC1(C)C(=O)N(c2ccc(F)c(C(F)(F)F)c2)C(=O)N1CCc1ccccc1` [Compd 6, 3-[4-Fluoro-3-(trifluoromethyl)phenyl]-5,5-dimethyl-1-phenethylimidazolidine-2,4-dione] displayed a Sol2.0 under setting [7] of 12.5 to 25 µg/mL. Under setting [8], this molecule gave a Sol6.5 of 25 to 50 µg/mL. Besides, the “metabolic stability (in words)” value in data set [1] is on record as “unstable”.

For the molecule `CC1(C)C(=O)N(c2ccc(F)c(C(F)(F)F)c2)C(=O)N1S(C)(=O)=O` [Compd 7, 3-[4-Fluoro-3-(trifluoromethyl)phenyl]-5,5-dimethyl-1-(methylsulfonyl)imidazolidine-2,4-dione], under setting [7], the Sol2.0 is on record as 1.6–3.1/1.6–3.1 μg/mL. In addition, the Sol6.5 under setting [8] is 1.6–3.1/1.6–3.1 μg/mL. Further, the “metabolic stability (in words)” value in data set [1] was “highly stable”.

Take `CC1(C)C(=O)N(c2ccc(F)c(C(F)(F)F)c2)C(=O)N1S(=O)(=O)c1ccccc1` [Compd 8, 3-[4-Fluoro-3-(trifluoromethyl)phenyl]-5,5-dimethyl-1-(phenylsulfonyl)imidazolidine-2,4-dione]: under setting [7], the Sol2.0 is <1.6/<1.6 μg/mL. Besides, under setting [8], the Sol6.5 was <1.6/<1.6 μg/mL. Moreover, the “metabolic stability (in words)” value in data set [1] is listed as “unstable”.

With `CC1(C)NC(=O)N(c2ccnc(C(F)(F)F)c2)C1=O` [Compd 16, 5,5-Dimethyl-3-[2-(trifluoromethyl)pyridin-4-yl]imidazolidine-2,4-dione], the “cure of infected mice” value in the data set with S. mansoni [3] was “cure of all of the infected mice”.

Take `O=C1CNC(=O)N1c1ccc(F)c(C(F)(F)F)c1` [Compd 22]: the Sol2.0 under setting [7] is recorded as >100/>100 μg/mL. Further, the Sol6.5 under setting [8] was >100/>100 μg/mL. Moreover, in data set [1], the “metabolic stability (in words)” value was “high metabolic stabilities”.

For the molecule `CC1(CO)NC(=O)N(c2ccc(F)c(C(F)(F)F)c2)C1=O` (stereo not shown) [Compd 25, 3-[4-Fluoro-3-(trifluoromethyl)phenyl]-5-(hydroxymethyl)-5-methylimidazolidine-2,4-dione], in data set [4], the “exposure of metabolite relative to 1, based on AUC0–24h” value was “approximately 3%”. Moreover, the Sol2.0 under setting [7] is recorded as 25–50/25–50 μg/mL. In addition, the Sol6.5 under setting [8] is 25–50/25–50 μg/mL. In addition, the “metabolic stability (in words)” value in data set [1] was “high metabolic stabilities”.

As to `O=C1NC2(CCCC2)C(=O)N1c1ccc(F)c(C(F)(F)F)c1` [Compd 26, 3-[4-Fluoro-3-(trifluoromethyl)phenyl]-1,3-diazaspiro[4.4]nonane-2,4-dione], the Sol2.0 under setting [7] is on record as 50–100/50–100 μg/mL. Further, the Sol6.5 under setting [8] is 50–100/50–100 μg/mL. Also, the “metabolic stability (in words)” value in data set [1] was “decreased the metabolic stabilities”.

Take `O=C1NC2(CCCCC2)C(=O)N1c1ccc(F)c(C(F)(F)F)c1` [Compd 27, 3-[4-Fluoro-3-(trifluoromethyl)phenyl]-1,3-diazaspiro[4.5]decane-2,4-dione]: the Sol2.0 under setting [7] is on record as 3.1–6.3/3.1–6.3 μg/mL. The Sol6.5 under setting [8] was 3.1–6.3/3.1–6.3 μg/mL. Also, in data set [1], the “metabolic stability (in words)” value is “decreased the metabolic stabilities”.

`O=C1C2CCCN2C(=O)N1c1ccc(F)c(C(F)(F)F)c1` (stereo not shown) [Compd 28, 2-[4-Fluoro-3-(trifluoromethyl)phenyl]tetrahydro-1H-pyrrolo[1,2-c]imidazole-1,3(2H)-dione]: the Sol2.0 under setting [7] was 25–50/25–50 μg/mL. Moreover, the Sol6.5 under setting [8] is recorded as 25–50/25–50 μg/mL. Further, in data set [1], the “metabolic stability (in words)” value is “decreased the metabolic stabilities”.

As for `CC1(C)CC(=O)N(c2ccc(F)c(C(F)(F)F)c2)C1=O` [Compd 29, 1-[4-Fluoro-3-(trifluoromethyl)phenyl]-3,3-dimethylpyrrolidine-2,5-dione], under setting [7], the Sol2.0 is listed as 12.5–25/12.5–25 μg/mL. The Sol6.5 under setting [8] is given as 12.5–25/12.5–25 μg/mL.

Turning to `CC1(C)OC(=O)N(c2ccc(F)c(C(F)(F)F)c2)C1=O` [Compd 30, 3-[4-Fluoro-3-(trifluoromethyl)phenyl]-5,5-dimethyloxazolidine-2,4-dione], the Sol2.0 under setting [7] is reported as 3.1–6.3/3.1–6.3 μg/mL. In addition, the Sol6.5 under setting [8] is 3.1–6.3/3.1–6.3 μg/mL.

Regarding `CC1(C)NC(=O)C(c2ccc(F)c(C(F)(F)F)c2)C1=O` (stereo not shown) [Compd 31, 3-[4-Fluoro-3-(trifluoromethyl)phenyl]-5,5-dimethylpyrrolidine-2,4-dione], the Sol2.0 under setting [7] lay within 25 to 50 µg/mL.

Turning to `CC1(C)CN(c2ccc(F)c(C(F)(F)F)c2)C(=O)N1` [Compd 32, 1-[4-Fluoro-3-(trifluoromethyl)phenyl]-4,4-dimethylimidazolidin-2-one], the Sol2.0 under setting [7] is 12.5–25/12.5–25 μg/mL. In addition, the Sol6.5 under setting [8] is 12.5–25/12.5–25 μg/mL.

Consider `CC1(C)C(=O)NC(=O)N1c1ccc(F)c(C(F)(F)F)c1` [Compd 33, 1-[4-Fluoro-3-(trifluoromethyl)phenyl]-5,5-dimethylimidazolidine-2,4-dione], for which the Sol2.0 under setting [7] is listed as 25–50/25–50 μg/mL. The Sol6.5 under setting [8] is listed as 25–50/25–50 μg/mL.

As for `CC1(C)CC(=O)N(c2ccc(F)c(C(F)(F)F)c2)C(=O)N1` [Compd 34, 3-[4-Fluoro-3-(trifluoromethyl)phenyl]-6,6-dimethyldihydropyrimidine-2,4(1H,3H)-dione], the Sol2.0 under setting [7] is on record as 25–50/25–50 μg/mL. Besides, under setting [8], the Sol6.5 is reported as 25–50/25–50 μg/mL.

With `CC1(C)CNC(=O)N(c2ccc(F)c(C(F)(F)F)c2)C1=O` [Compd 35, 3-[4-Fluoro-3-(trifluoromethyl)phenyl]-5,5-dimethyldihydropyrimidine-2,4(1H,3H)-dione], under setting [7], the Sol2.0 is listed as 12.5–25/12.5–25 μg/mL. In addition, the Sol6.5 under setting [8] is on record as 12.5–25/12.5–25 μg/mL.

With `CC(C)(NC(=O)Nc1ccc(F)c(C(F)(F)F)c1)C(=O)O` [Compd 36, 2-[3-[4-Fluoro-3-(trifluoromethyl)phenyl]ureido]-2-methylpropanoic acid], in data set [4], the “exposure of metabolite relative to 1, based on AUC0–24h” value is given as under 1%. The Sol2.0 under setting [7] lay within 25 to 50 µg/mL.

Regarding `CC1(C)NC(=O)N(c2ccc([N+](=O)[O-])c(C(F)(F)F)c2)C1=O` [N, nilutamide], in the data set with S. mansoni [5], the “antischistosomal activity in S. mansoni-infected mice” value is on record as “weak, but measurable”.

Turning to `O=C(C1CCCCC1)N1CC(=O)N2CCc3ccccc3C2C1` (stereo not shown) [PZ, Praziquantel], the Sol2.0 (pH 2) was >100/>100 μg/mL. Further, the Sol6.5 (pH 6.5) was >100/>100 μg/mL. Besides, in the data set on S. mansoni [5] (mouse model), the “ED50 against adult S. mansoni” value is given as 172 to 202 mg/kg and the “activity against juvenile stages of the parasite” value is “no significant activity”. For the same molecule, the “S. mansoni WBR” value in the data set with S. mansoni [6] was 18 ^i %.
